Assay results reported in PubChem BioAssay AID179 (DTP/NCI, 2004).
Calls of active or inactive are those of the source.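 Rule for the calls: active = compounds giving half or more protection of infected cells from virus-caused growth loss, again on retest; inactive = the rest.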

Tested on: CEM cells HIV-1 protection, formazan growth assay
Experiment: NCI AIDS Antiviral Assay
Conditions: for IC50: measured here: growth of uninfected CEM cells
Procedure, shortened: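 Protection of CEM cells against HIV-1 measured as cell growth via soluble formazan read-out, with five concentrations tested on both infected and uninfected cells; failure to protect may reflect toxicity.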

Structure (SMILES) | EC50 | IC50 | outcome
CCOC(=O)/C(=C\n1c(=S)[nH]c2cc(C)ccc21)C(=O)c1ccccc1 | > 100 µM | > 100 µM | 
COc1ccc(NC(=O)C2=C(SC)C(=O)N=C2N)cc1 | > 100 µM | > 100 µM | 
CC(C)C1CCC2(C)CC3C(CO)CC(O)C3C(C)(O)C/C=C/12 (stereo not drawn) |  |  | inactive
COc1ccc2cc1Oc1ccc(cc1)C[C@H]1c3cc(c(OC)cc3CCN1C)Oc1c(OC)c(OC)cc3c1[C@H](C2)N(C)CC3 | > 21.9 µM | 12.3 µM | inactive
Cc1c(C)c2c(c(N)c1C#N)C(=O)N(CCc1ccccc1)C2=O | > 200 µM | 170 µM | 
CCC1=CCN(c2ccccn2)OC1c1ccc(OC)cc1 (stereo not drawn) | > 63.1 µM | 60.3 µM | 
O=S1(c2ccccc2)=NC(Nc2ccccc2)=Nc2ccccc21 (stereo not drawn) | > 36.3 µM | 30.2 µM | 
c1ccc2nc3cc4c(cc3nc2c1)NC12CCCCC1CC1=C(CCCC1)N42 (stereo not drawn) | > 200 µM | 3.24 µM | 
CCC1(N)COC(c2ccccc2)OC1 (stereo not drawn) | > 200 µM | > 200 µM | 
CC(C)(C)c1ccc(O)c(Cc2cc(C(C)(C)C)cc(Cc3cc(C(C)(C)C)ccc3O)c2O)c1 | > 39.8 µM | 12.9 µM | 
O=[N+]([O-])c1cccc(C2=NOC3CCCC23)c1 (stereo not drawn) |  |  | inactive
O=C(/C=C/c1ccccc1)Oc1cccc2cccnc12 | > 200 µM | 3.63 µM | 
Cc1ccc(NC(=O)C(=O)CC(=O)c2c(C)n([O-])c3ccccc3[n+]2=O)cc1C | > 64.6 µM | > 64.6 µM | 
COc1ccc(CNc2nc3cc(C(F)(F)F)ccc3nc2C(=O)O)cc1OC | > 200 µM | 66.1 µM | 
CCOC(=O)C(C)(C(C)=O)c1nc(=S)[nH]c(=S)[nH]1 (stereo not drawn) | > 200 µM | 95.5 µM | 
CC(C)C1OC23CCCCC2C(C#N)(C#N)C1(C#N)C(=N)O3 (stereo not drawn) | > 200 µM | 5.89 µM | 
COC1/C=C/OC2(C)Oc3c(C)c(O)c4c(O)c(c(/C=N/N5C(C)CN(Cc6ccc([N+](=O)[O-])cc6)CC5C)c(O)c4c3C2=O)NC(=O)/C(C)=C\C=C\C(C)C(O)C(C)C(O)C(C)C(OC(C)=O)C1C (stereo not drawn) | > 200 µM | 7.59 µM | 
O=C(NCCc1c[nH]c2ccccc12)C1CCCCC1 | > 200 µM | 67.6 µM | 
CC(=O)N1C(=O)CC2(N=C(C)CC2=O)c2ccccc21 (stereo not drawn) | > 200 µM | > 200 µM | 
CC(C)(C)OC(=O)C1=C2C=C(O)C=CC2(C)N(Cc2ccccc2)C1=N (stereo not drawn) | > 2 µM | 0.741 µM | 
COc1ccc2nc3ccc(OC)cc3c(S(=O)CCCl)c2c1 (stereo not drawn) | > 200 µM | 3.63 µM | 
O=S(=O)(c1ccc(Br)cc1)S(=O)(=O)c1ccc(Br)cc1 | > 11.7 µM | > 11.7 µM | 

Structure (SMILES) | EC50 | IC50 | outcome
N=C(N)SCc1ccc2c(c1)S(=O)(=O)c1ccccc1O2 | > 200 µM | 13.2 µM | 
COc1ccc(/C=C2\NC(=S)N(/C=C3\C(=O)Oc4ccccc4C3=O)C2=O)cc1 | > 200 µM | 148 µM | 
COC(=O)C1C(OC(=O)c2ccccc2)CC2CCC1N2C(N)=O (stereo not drawn) | > 200 µM | > 200 µM | 
O/N=C1\CCCCC1C(NO)c1ccccc1 (stereo not drawn) | > 398 µM | 191 µM | 
[O-][N+]1=C(c2ccccc2)COc2ccccc21 | > 115 µM | > 115 µM | 
COc1ccc(P2(=S)Oc3ccc(C(c4ccccc4)(c4ccccc4)c4ccccc4)cc3O2)cc1 (stereo not drawn) |  |  | inactive
C/C(=C/CNc1ncnc2c1ncn2CCC#N)CO | > 200 µM | > 200 µM | 
O=C1NS(=O)(=O)c2ccccc21.[Cu+2] | > 1150 µM | 58.9 µM | 
C[C@H](c1ccccc1)N1C(=O)[C@@H](O)[C@H]1[C@H](CO)OCc1ccccc1 | > 200 µM | > 200 µM | 
CCCCCCCN1C(=O)C(O)(c2ccc(C3(O)C(=O)N(CCCCCCC)c4ccccc43)s2)c2ccccc21 (stereo not drawn) | > 200 µM | 11.2 µM | 
CCOC(=O)/C(C#N)=C\Sc1ccccc1 |  |  | inactive
CC1=CCC[C@@]2(C)C(CC[C@@H]2C(C)/C=C/C(C)C)c2ccc(cc2C(=O)O)C[C@@H](O)CC1 (stereo partly drawn) |  |  | inactive
COc1ccccc1NC(=O)C(=O)C(c1cnc2ccc([N+](=O)[O-])cc2n1)[N+](=O)[O-] (stereo not drawn) | > 316 µM | 89.1 µM | 
CCOc1cc2c(cc1O)CC[C@@H]1[C@@H]2CC[C@]2(C)C(OS(=O)OC3CC[C@@H]4[C@H]5CCc6cc(O)c(OCC)cc6[C@@H]5CC[C@@]34C)CC[C@@H]12 (stereo partly drawn) | > 2 µM | 0.537 µM | 
COc1c(I)c(OC)c2c(c1I)O[C@@H]1OCC[C@H]21 | > 501 µM | 240 µM | 
CC=C=CCN(C)Cc1ccccc1 | > 324 µM | > 324 µM | 
COc1cccc(-n2c3nc(=O)n(C)c(=O)c-3nc3ccccc32)c1 |  |  | inactive
COC(=O)C1C(=O)N(C)C(=O)N2CCCC12 (stereo not drawn) | > 200 µM | > 200 µM | 
COc1ccc(CCN(C)C(=O)CC(C#N)(c2ccccc2)c2ccc(OC)c(OC)c2)cc1OC (stereo not drawn) | > 200 µM | 95.5 µM | 
CC(=O)OCc1cc(=O)n2c([nH]c3ccccc32)c1C#N | > 20 µM | > 20 µM | 
COc1ccc(C(C#N)NNC(=O)Cc2ccccc2)cc1OC (stereo not drawn) | > 398 µM | 331 µM | 
NC1=NC2(CS1)CSC(N)=N2 | > 263 µM | > 263 µM | 
